Results published in US20240226310A1, “Lipid Nanoparticle Therapeutics that Evade the Immune Response” (The Trustees of the University of Pennsylvania, priority 2021, published 2024).

Test system: pro-inflammatory cytokines
Experiment: Pro-inflammatory cytokines in systemic mouse model of inflammation (IV-LPS)
Format: in vivo, mice
[1] = removal of macrophages, LPS-treated mice which received LNP-mRNAs

SMILES: O=P(O)(O)C(Cl)(Cl)P(=O)(O)O [Clodronate]
- systemic pro-inflammatory cytokines/markers (IV treatment, LPS model of systemic inflammation): reduces systemic pro-inflammatory markers
- IL-6 in blood [1]: significantly lowered
- MIP-2 in liver homogenate [1]: significantly lowered
